Series [1] concerns A549 cells (human lung carcinoma cell line). As to the kind of experiment: A549 cell proliferation MTT assay. The format is cell-based. The conditions noted are these: 120 h, 5 days incubation, MTT readout at 550 nm. The procedure:
A549 cells (human lung carcinoma cell line) were cultivated in RPMI 1640, 2.5% FCS, 2 mM glutamine, 100 u/ml Penicillin, 100 μg/ml Streptomycin. For the assay the cells were seeded in 384 well plates, 900 cells per well, in the same medium. The next day compounds (dissolved 10 mM in DMSO) were added in various concentrations ranging from 3 μM to 0.15 nM (10 concentrations, 1:3 diluted). After 5 days the MTT assay was done mainly according to the instructions of the manufacturer (Cell proliferation kit I, MTT, from Roche Molecular Biochemicals). In brief, MTT labeling reagent was added to a final concentration of 0.5 mg/ml, added and incubated for 4 hrs at 37 C, 5% CO2. During this incubation time purple formazan crystals are formed. After addition of the solubilization solution (20% SDS in 0.02 M HCl) the plates were incubated overnight at 37° C., 5% CO2.
After careful mixing the plates were measured in Victor 2 (scanning multiwell spectrophotometer, Wallac) at 550 nm.
A decrease in number of living cells results in a decrease in the total metabolic activity in the sample. The decrease directly correlates to the amount of purple color resulting from the solubilization of the purple formazan crystals.
A549: 900 cells in 60 μl per well of 384 well plate (Greiner) • Medium: RPMI 1640, 2.5% FCS, glutamine, pen/strep. • Incubate 1 day at 37° C.
Induction: • Dilution of compound in DMSO: 3 μl 10 mM+27 μl DMSO, dilute 1:3 • Add 2 μl of compound dilution row to 95 μl of medium • Add 10 μl of compound dilution to 60 μl medium in test plate ? 0.3% DMSO per well • Incubate 120 h (5 days) at 37° C., 5% CO2
Analysis: • Add 7 μl MTT (5 mg/ml/well), incubate 4 h at 37° C. • Add 30 μl lysis buffer (20% SDS, 0.04 N HCl) per well • Incubate overnight at 37° C.
Measurement: • Victor 2; 550 nm • Determination of IC50 was done using XL-fit.

For the compound `Fc1cc(Cl)ccc1/C=C/c1nc(COc2ccc(-c3nc(Cn4ccnc4)co3)cc2)co1` [Example 14, 2-[(E)-2-(2-Fluoro-4-chloro-phenyl)-vinyl]-4-[4-(4-imidazol-1-ylmethyl-oxazol-2-yl)phenoxymethyl]-oxazole], the melting point (commonly the temperature of the solid-liquid transition) lay within 166 to 167 °C.

`FC(F)(F)c1ccc(/C=C/c2nc(COc3ccc(-c4nc(Cn5ccnn5)co4)cc3)co2)cc1` [Example 4, 1-[2-(4-{2-[(E)-2-(4-Trifluoromethyl-phenyl)-vinyl]-oxazol-4-ylmethoxy}-phenyl) -oxazol-4-ylmethyl]-1H-[1,2,3]triazole]: the melting point was 170 °C. Moreover, in series [1], half-maximal inhibition (IC50) was put at 45 nM. The like results for `Fc1cc(C(F)(F)F)ccc1/C=C/c1nc(COc2ccc(-c3nc(Cn4ccnn4)co3)cc2)co1` [Example 6, 1-[2-(4-{2-[(E)-2-(2-Fluoro-4-trifluoromethyl-phenyl)-vinyl]-oxazol-4-ylmethoxy}-phenyl)-oxazol-4-ylmethyl]-1H-[1,2,3]triazole] were, in that order, 152 to 154 °C and 7 nM. Turning to `FC(F)(F)Oc1ccc(/C=C/c2nc(COc3ccc(-c4nc(Cn5ccnn5)co4)cc3)co2)cc1` [Example 2, 1-[2-(4-{2-[(E)-2-(4-Trifluoromethoxy-phenyl)-vinyl]-oxazol-4-ylmethoxy}-phenyl) -oxazol-4-ylmethyl]-1H-[1,2,3]triazole], the melting point fell in the range of 166 to 172 °C. For the same compound, the IC50 (usually the concentration that gives 50% inhibition) in series [1] came out at 46 nM. Turning to `COc1ccc(/C=C/c2nc(COc3ccc(-c4nc(Cn5ccnn5)co4)cc3)co2)cc1` [Example 1, 1-[2-(4-{2-[(E)-2-(4-Methoxy-phenyl)-vinyl]-oxazol-4-ylmethoxy}-phenyl)-oxazol-4-ylmethyl]-1H-[1,2,3]triazole], the melting point amounted to 178 °C. In turn, `Fc1cc(C(F)(F)F)ccc1/C=C/c1nc(COc2ccc(-c3nc(Cn4ccnn4)cs3)cc2)co1` [Example 8, 1-[2-(4-{2-[(E)-2-(2-Fluoro-4-trifluoromethyl-phenyl)-vinyl]-oxazol-4-ylmethoxy}-phenyl)-thiazol-4-ylmethyl]-1H-[1,2,3]triazole] displayed a melting point of 180 to 182 °C. Moreover, half-maximal inhibition in series [1] (IC50) required 70 nM.

The compound `Fc1cc(C(F)(F)F)ccc1/C=C/c1nc(COc2ccc(-c3nc(Cn4ccnc4)cs3)cc2)co1` [Example 12, 2-[(E)-2-(2-Fluoro-4-trifluoromethyl-phenyl)-vinyl]-4-[4-(4-imidazol-1-ylmethyl-thiazole-2-yl)-phenoxymethyl]-oxazole] had a melting point of 133 to 135 °C. `FC(F)(F)c1ccc(/C=C/c2nc(COc3ccc(-c4nc(Cn5ccnn5)co4)cc3)cs2)cc1` [Example 10, 1-[2-(4-{2-[(E)-2-(4-Trifluoromethyl-phenyl)-vinyl]-thiazol-4-ylmethoxy}-phenyl) -oxazol-4-ylmethyl]-1H-[1,2,3]triazole]: the melting point was in the range of 179 to 181 °C. This compound displayed an IC50 in series [1] of 60 nM.

For `[O-][S+](c1ccc(/C=C/c2nc(COc3ccc(-c4nc(Cn5ccnn5)co4)cc3)co2)cc1)C(F)(F)F` (stereo not shown) [Example 15, 1-[2-(4-{2-[(E)-2-(−4-Trifluoromethylsulfinyl-phenyl)-vinyl]-oxazol-4-ylmethoxy}-phenyl)-oxazol-4-ylmethyl]-1H-[1,2,3]triazole], the melting point was 167 to 169 °C. In turn, `Fc1cc(Cl)ccc1/C=C/c1nc(COc2ccc(-c3nc(Cn4ccnn4)co3)cc2)co1` [Example 9, 1-[2-(4-{2-[(E)-2-(4-Chloro-2-fluoro-phenyl)-vinyl]-oxazol-4-ylmethoxy}-phenyl)oxazole-4-ylmethyl]-1H-[1,2,3]triazole] gave a melting point of 193 to 194 °C. In series [1], this compound returned an IC50 of 11 nM.

In turn, `FC(F)(F)Sc1ccc(/C=C/c2nc(COc3ccc(-c4nc(Cn5ccnc5)co4)cc3)co2)cc1` [Example 16, 1-[2-(4-{2-[(E)-2-(−4-Trifluoromethylsulfanyl-phenyl)-vinyl]-oxazol-4-ylmethoxy}-phenyl)-oxazol-4-ylmethyl]-1H-imidazole] registered a melting point of 144 to 145 °C.

For `Fc1cc(C(F)(F)F)ccc1/C=C/c1nc(COc2ccc(-c3nc(Cn4ccnc4)co3)cc2)co1` [Example 13, 2-[(E)-2-(2-Fluoro-4-trifluoromethyl-phenyl)-vinyl]-4-[4-(4-imidazol-1-ylmethyl-oxazol-2-yl)-phenoxymethyl]-oxazole], the melting point was 150 to 153 °C. In turn, `Clc1ccc(/C=C/c2nc(COc3ccc(-c4nc(Cn5ccnn5)co4)cc3)co2)cc1` [Example 5, 1-[2-(4-{2-[(E)-2-(4-Chloro-phenyl)-vinyl]-oxazol-4-ylmethoxy}-phenyl)-oxazol-4-ylmethyl]-1H-[1,2,3]triazole] yielded a melting point of 208 to 210 °C. For the same compound, the IC50 in series [1] came to 69 nM. Take `FS(F)(F)(F)(F)c1ccc(/C=C/c2nc(COc3ccc(-c4nc(Cn5ccnn5)co4)cc3)co2)cc1` [Example 19, 1-[2-(4-{2-[(E)-2-(4-Pentafluorosulfanyl-phenyl)-vinyl]-oxazol-4-ylmethoxy}-phenyl) -oxazol-4-ylmethyl]-1H-[1,2,3]triazole]: the melting point lay in the range of 172 to 174 °C. On the same count and under the same terms, the result for `OCCc1nccn1Cc1coc(-c2ccc(OCc3coc(/C=C/c4ccc(Cl)cc4F)n3)cc2)n1` [Example 18, 2-{1-[2-(4-{2-[(E)-2-(4-Chloro-2-fluoro-phenyl)-vinyl]-oxazol-4-ylmethoxy}-phenyl)-oxazole-4-ylmethyl]-1H-imidazol-2-yl}-ethanol] reads 170 to 172 °C.

For the compound `FC(F)(F)c1ccc(/C=C/c2nc(COc3ccc(-c4nc(Cn5ccnn5)cs4)cc3)co2)cc1` [Example 7, 1-[2-(4-{2-[(E)-2-(4-Trifluoromethyl-phenyl)-vinyl]-oxazol-4-ylmethoxy}-phenyl) -thiazol-4-ylmethyl]-1H-[1,2,3]triazole], the melting point was 163 to 165 °C. In series [1], this compound returned an IC50 of 37 nM.

For `[O-][S+](c1ccc(/C=C/c2nc(COc3ccc(-c4nc(Cn5ccnc5)co4)cc3)co2)cc1)C(F)(F)F` (stereo not shown) [Example 17, 1-[2-(4-{2-[(E)-2-(−4-Trifluoromethylsulfinyl-phenyl)-vinyl]-oxazol-4-ylmethoxy}-phenyl)-oxazol-4-ylmethyl]-1H-imidazole], the melting point lay in the range of 134 to 136 °C. Consider `FC(F)(F)Sc1ccc(/C=C/c2nc(COc3ccc(-c4nc(Cn5ccnn5)co4)cc3)co2)cc1` [Example 3, 1-[2-(4-{2-[(E)-2-(−4-Trifluoromethylsulfanyl-phenyl)-vinyl]-oxazol-4-ylmethoxy}-phenyl)-oxazol-4-ylmethyl]-1H-[1,2,3]triazole], for which the melting point lay within 172 to 173 °C. For the same compound, in series [1], the IC50 came to 46 nM.

For `FC(F)(F)c1ccc(/C=C/c2nc(COc3ccc(-c4nc(Cn5ccnn5)cs4)cc3)cs2)cc1` [Example 11, 1-[2-(4-{2-[(E)-2-(4-Trifluoromethyl-phenyl)-vinyl]-thiazol-4-ylmethoxy}-phenyl) -thiazole-4-ylmethyl]-1H-[1,2,3]triazole], the melting point fell in the range of 146 to 148 °C.

For the origin of these results see patent US7259262B2, “Arylazole derivatives, their manufacture and use as pharmaceutical agents” (Hoffmann-La Roche Inc., priority 2003, dated 2007).
